Experimental data from PMC3993903 (Molecular pharmaceutics, 2014).

How the values were obtained:
Type in all cases: cell-based, human
[1] = system: drug-resistant cervical cancer cells KB-V1; assay: Cellular uptake by KB-V1 cells; conditions: 5 µM, absence or presence of equal molar C8-Tat (5 µM), flow cytometry
[2] = system: KB-3-1 cells; assay: Cytotoxicity; conditions: 2 h treatment with 5 or 15 µM, further 46 h in drug-free medium, SRB, mean ± s.d. n = 3
[3] = system: KB-V1 cells; assay: Cytotoxicity; conditions: 2 h treatment with 5 or 15 µM, further 46 h in drug-free medium, SRB, mean ± s.d. n = 3

COc1cccc2c1C(=O)c1c(O)c3c(c(O)c1C2=O)C[C@@](O)(C(=O)CO)C[C@@H]3O[C@H]1C[C@H](N)[C@H](O)[C@H](C)O1 [Dox, doxorubicin]
intracellular accumulation with or without C8-Tat treatment [1]: almost identical
short-term cytotoxicity (cell viability) [2]: toxicity toward drug-sensitive cells
short-term cytotoxicity (cell viability) [3]: not on drug-resistant cells
